Measurements: article PMC9267968, “Continued Structural Exploration of Sulfocoumarin as Selective Inhibitor of Tumor-Associated Human Carbonic Anhydrases IX and XII” (Molecules, 2022)

Experiments:
hCA I = target: T1, hCA I (Homo sapiens, UniProt P00915); assay: stopped-flow CO2 hydrase assay, hCA I inhibition; type: biochemical; settings: 6 h incubation of enzyme and inhibitor; mean from 3 different assays, errors 5-10%; read-out: KI (nM) CA I
T1 construct: made in house
Description: (§1) For this reason, we herein report a 6 h incubation time instead.
(§2) An Applied Photophysics stopped-flow instrument was used for assaying the CA catalyzed CO2 hydration activity. […] The uncatalyzed rates were determined in the same manner and subtracted from the total observed rates. Stock solutions of inhibitor (0.1 mM) were prepared in distilled–deionized water and dilutions up to 0.01 nM were done thereafter with the assay buffer. Inhibitor and enzyme solutions were preincubated together for 6h at room temperature prior to assay, in order to allow for the formation of the E-I complex. The inhibition constants were obtained by non-linear least-squares methods using PRISM 3 and the Cheng–Prusoff equation and represent the mean from at least three different determinations. […] All CA isoforms were recombinant ones obtained in-house.

hCA II = target: T2, hCA II (Homo sapiens, UniProt P00918); assay: stopped-flow CO2 hydrase assay, hCA II inhibition; type: biochemical; settings: 6 h incubation of enzyme and inhibitor; mean from 3 different assays, errors 5-10%; read-out: KI (nM) CA II
T2 construct: made in house
Description: as §1, §2

hCA IX = target: T3, hCA IX (Homo sapiens, UniProt Q16790); assay: stopped-flow CO2 hydrase assay, hCA IX inhibition; type: biochemical; settings: 6 h incubation of enzyme and inhibitor; mean from 3 different assays, errors 5-10%; read-out: KI (nM) CA IX
T3 construct: made in house
Description: as §1, §2

hCA XII = target: T4, hCA XII (Homo sapiens, UniProt O43570); assay: biochemical
T4 construct: made in house
T4 sequence (O43570 25-354): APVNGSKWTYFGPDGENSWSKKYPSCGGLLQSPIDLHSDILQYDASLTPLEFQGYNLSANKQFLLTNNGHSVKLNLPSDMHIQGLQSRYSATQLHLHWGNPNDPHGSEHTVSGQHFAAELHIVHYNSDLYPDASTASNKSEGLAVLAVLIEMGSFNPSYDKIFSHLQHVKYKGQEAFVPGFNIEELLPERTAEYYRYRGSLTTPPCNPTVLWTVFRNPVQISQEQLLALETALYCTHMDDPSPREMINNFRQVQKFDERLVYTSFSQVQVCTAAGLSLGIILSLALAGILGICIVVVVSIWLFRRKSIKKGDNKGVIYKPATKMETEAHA
Description: as §1, §2

T1 sequence (P00915 whole entry): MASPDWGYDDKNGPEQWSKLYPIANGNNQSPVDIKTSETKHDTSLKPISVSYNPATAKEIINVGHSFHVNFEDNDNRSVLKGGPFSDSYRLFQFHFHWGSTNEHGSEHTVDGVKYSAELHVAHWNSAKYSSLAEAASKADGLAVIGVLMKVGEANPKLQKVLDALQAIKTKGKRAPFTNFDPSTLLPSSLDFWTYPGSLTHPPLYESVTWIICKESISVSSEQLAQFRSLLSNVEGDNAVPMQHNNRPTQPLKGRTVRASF

Compound | Ki (hCA I) [nM] | Ki (hCA II) [nM] | Ki (hCA IX) [nM] | Ki (hCA XII) [µM] | melting point [°C]
O=C(Nc1ccccc1)C1=Cc2ccccc2OS1(=O)=O [Compound 38, N-phenylbenzo[e][1,2]oxathiine-3-carboxamide 2,2-dioxide] | > 100000 | > 100000 | 3290 | 2.3 | 192 to 195
O=C(Nc1ccc(Br)cc1)C1=Cc2ccccc2OS1(=O)=O [Compound 39, N-(4-bromophenyl)benzo[e][1,2]oxathiine-3-carboxamide 2,2-dioxide] | > 100000 | > 100000 | 34300 | 59 | 249 to 252
O=C(Nc1cccc(Br)c1)C1=Cc2ccccc2OS1(=O)=O [Compound 40, N-(3-bromophenyl)benzo[e][1,2]oxathiine-3-carboxamide 2,2-dioxide] | > 100000 | > 100000 | 40800 | 78.3 | 228 to 229
COc1ccc(NC(=O)C2=Cc3ccccc3OS2(=O)=O)cc1 [Compound 41, N-(4-methoxyphenyl)benzo[e][1,2]oxathiine-3-carboxamide 2,2-dioxide] | > 100000 | > 100000 | 8230 | 8.55 | 231 to 233
COc1cccc(NC(=O)C2=Cc3ccccc3OS2(=O)=O)c1 [Compound 42, N-(3-methoxyphenyl)benzo[e][1,2]oxathiine-3-carboxamide 2,2-dioxide] | > 100000 | > 100000 | 5420 | 3.38 | 219 to 221
COc1ccc2c(c1)OS(=O)(=O)C(C(=O)Nc1ccccc1)=C2 [Compound 43, 7-methoxy-N-phenylbenzo[e][1,2]oxathiine-3-carboxamide 2,2-dioxide] | > 100000 | > 100000 | 2430 | 1.59 | 241 to 244
COc1ccc2c(c1)OS(=O)(=O)C(C(=O)Nc1ccc(Br)cc1)=C2 [Compound 44, N-(4-bromophenyl)-7methoxybenzo[e][1,2]oxathiine-3-carboxamide 2,2-dioxide] | > 100000 | > 100000 | 51500 | 42.5 | 272 to 275
COc1ccc2c(c1)OS(=O)(=O)C(C(=O)Nc1cccc(Br)c1)=C2 [Compound 45, N-(3-bromophenyl)-7-methoxybenzo[e][1,2]oxathiine-3-carboxamide 2,2-dioxide] | > 100000 | > 100000 | 64400 | 76.5 | 218 to 220
COc1ccc(NC(=O)C2=Cc3ccc(OC)cc3OS2(=O)=O)cc1 [Compound 46, N-(4-methoxyphenyl)-7-methoxybenzo[e][1,2]oxathiine-3-carboxamide 2,2-dioxide] | > 100000 | > 100000 | 4370 | 6.55 | 238 to 240
COc1cccc(NC(=O)C2=Cc3ccc(OC)cc3OS2(=O)=O)c1 [Compound 47, N-(3-methoxyphenyl)-7-methoxybenzo[e][1,2]oxathiine-3-carboxamide 2,2-dioxide] | > 100000 | > 100000 | 6560 | 2.47 | 222 to 225
